From article PMC10620772, “Design, synthesis, and biological evaluation of new pyrimidine-5-carbonitrile derivatives as novel anti-cancer, dual EGFR^WT/COX-2 inhibitors with docking studies” (RSC Advances, 2023)

What was measured:
Assay type in all cases: cell-based, human
K-562 = assay: NCI60 antitumor screening
SK-MEL-2 = assay: NCI60 antitumor screening; conditions: Homo sapiens; 10 μM single dose; SK-MEL-2 (melanoma); read-out: growth inhibition percent (GI%)
MOLT-4 = assay: NCI60 antitumor screening
SW-620 = assay: NCI60 antitumor screening
MDA-MB-468 = assay: NCI60 antitumor screening
HOP-92 = assay: NCI60 antitumor screening
MALME-3M = assay: NCI60 antitumor screening
MDA-MB-435 = assay: NCI60 antitumor screening
MDA-MB-231/ATCC = assay: NCI60 antitumor screening; conditions: Homo sapiens; 10 μM single dose; MDA-MB-231/ATCC (breast cancer); read-out: growth inhibition percent (GI%)
OVCAR-4 = assay: NCI60 antitumor screening
SF-268 = assay: NCI60 antitumor screening
breast cancer subpanel = assay: NCI60 five-dose, subpanel IX
Excerpt: (2) The molar concentration of the compound responsible for total growth inhibition, also known as total growth inhibition (TGI).
Regarding subpanel selectivity toward certain cancer type, the method of determining a compound's selectivity index is to divide the full panel MG-MID (μM) value by each single subpanel. Values above six indicate high selectivity against the subpanel; moderate selectivity is denoted by values between three and six. Conversely, compounds are termed nonselective if their selectivity is less than three.[30,37]

OVCAR-8 = assay: NCI60 antitumor screening
CAKI-1 = assay: NCI60 antitumor screening
HS 578T = assay: NCI60 antitumor screening
SK-MEL-5 = assay: NCI60 antitumor screening
A549/ATCC = assay: NCI60 antitumor screening
NCI-H322M = assay: NCI60 antitumor screening
OVCAR-5 = assay: NCI60 antitumor screening
UACC-257 = assay: NCI60 antitumor screening
NCI-H226 = assay: NCI60 antitumor screening
MCF7 = assay: NCI60 antitumor screening
SF-539 = assay: NCI60 antitumor screening
SF-295 = assay: NCI60 antitumor screening
SK-OV-3 = assay: NCI60 antitumor screening
HCT-15 = assay: NCI60 antitumor screening
KM12 = assay: NCI60 antitumor screening
SR = assay: NCI60 antitumor screening
UACC-62 = assay: NCI60 antitumor screening
[1] = Homo sapiens, MDA-MB-468, five-dose
[2] = Homo sapiens, OVCAR-4, five-dose
[3] = full panel MG-MID / subpanel IX
[4] = Homo sapiens, NCI-H322M, five-dose
[5] = Homo sapiens, SF-539, five-dose

## N#Cc1c(-c2ccc(F)cc2)nc(SCc2ccc(F)cc2)nc1N1CCNCC1 [4f, 2-((4-Fluorobenzyl)thio)-4-(4-fluorophenyl)-6-(piperazin-1-yl) pyrimidine-5-carbonitrile]
K-562; 10 μM one-dose
  GI%: 99.28%
K-562; Homo sapiens, K562, five-dose
  GI50: 3.76 µM
K-562; Homo sapiens, K562, five-dose, read-out: LC50 (the source's name)
  CC50: > 100 µM
K-562; Homo sapiens, 10 μM single dose, (leukaemia), read-out: growth inhibition percent (GI%)
  inhibition at 10 µM: 99.3%
K-562; five-dose
  TGI: 17.80 µM
SK-MEL-2
  inhibition at 10 µM: > 100%
MOLT-4; 10 μM one-dose
  GI%: 92.21%
MOLT-4; Homo sapiens, MOLT-4, five-dose
  GI50: 10.5 µM
MOLT-4; Homo sapiens, MOLT-4, five-dose, read-out: LC50 (the source's name)
  CC50: 64.4 µM
MOLT-4; Homo sapiens, 10 μM single dose, MOLT-4 (leukaemia), read-out: growth inhibition percent (GI%)
  inhibition at 10 µM: 92.2%
MOLT-4; five-dose
  TGI: 26.00 µM
SW-620; Homo sapiens, SW-620, five-dose
  GI50: 5.97 µM
SW-620; Homo sapiens, SW-620, five-dose, read-out: LC50 (the source's name)
  CC50: 48.7 µM
SW-620; Homo sapiens, 10 μM single dose, SW-620 (colon cancer), read-out: growth inhibition percent (GI%)
  inhibition at 10 µM: > 100%
SW-620; five-dose
  TGI: 19.30 µM
MDA-MB-468; [1]
  GI50: 12.4 µM
  LC50: 55.3 µM
MDA-MB-468; Homo sapiens, 10 μM single dose, MDA-MB-468 (breast cancer), read-out: growth inhibition percent (GI%)
  inhibition at 10 µM: > 100%
MDA-MB-468; five-dose
  TGI: 26.20 µM
HOP-92; Homo sapiens, HOP-92, five-dose
  GI50: 7.64 µM
HOP-92; Homo sapiens, HOP-92, five-dose, read-out: LC50 (the source's name)
  CC50: 53.4 µM
HOP-92; Homo sapiens, 10 μM single dose, HOP-92 (non-small cell lung cancer), read-out: growth inhibition percent (GI%)
  inhibition at 10 µM: > 100%
HOP-92; five-dose
  TGI: 22.10 µM
MALME-3M; Homo sapiens, Malme-3M, five-dose
  GI50: 14.7 µM
MALME-3M; Homo sapiens, Malme-3M, five-dose, read-out: LC50 (the source's name)
  CC50: 54.8 µM
MALME-3M; Homo sapiens, 10 μM single dose, MALME-3M (melanoma), read-out: growth inhibition percent (GI%)
  inhibition at 10 µM: > 100%
MALME-3M; five-dose
  TGI: 28.40 µM
MDA-MB-435; Homo sapiens, MDA-MB-435, five-dose
  GI50: 16.8 µM
MDA-MB-435; Homo sapiens, MDA-MB-435, five-dose, read-out: LC50 (the source's name)
  CC50: 58.4 µM
MDA-MB-435; Homo sapiens, 10 μM single dose, MDA-MB-435 (melanoma), read-out: growth inhibition percent (GI%)
  inhibition at 10 µM: > 100%
MDA-MB-435; five-dose
  TGI: 31.30 µM
MDA-MB-231/ATCC
  inhibition at 10 µM: > 100%
OVCAR-4; [2]
  GI50: 16.5 µM
  LC50 (lethal concentration, 50% cell kill): 68.7 µM
OVCAR-4; Homo sapiens, 10 μM single dose, OVCAR-4 (ovarian cancer), read-out: growth inhibition percent (GI%)
  inhibition at 10 µM: > 100%
OVCAR-4; five-dose
  TGI: 33.60 µM
SF-268; Homo sapiens, SF-268, five-dose
  GI50: 14.1 µM
SF-268; Homo sapiens, SF-268, five-dose, read-out: LC50 (the source's name)
  CC50: 67.5 µM
SF-268; Homo sapiens, 10 μM single dose, SF-268 (CNS cancer), read-out: growth inhibition percent (GI%)
  inhibition at 10 µM: 58.5%
SF-268; five-dose
  TGI: 30.90 µM
Breast cancer subpanel; Homo sapiens, subpanel IX, read-out: MG-MID (GI50)
  GI50: 11.8 µM
Breast cancer subpanel; [3]
  Selectivity index (GI50): 1.14
  Selectivity index (TGI): 0.98
Breast cancer subpanel; subpanel IX
  MG-MID (TGI): 26.88 µM
OVCAR-8; Homo sapiens, OVCAR-8, five-dose
  GI50: 13.2 µM
OVCAR-8; Homo sapiens, OVCAR-8, five-dose, read-out: LC50 (the source's name)
  CC50: 70.6 µM
OVCAR-8; Homo sapiens, 10 μM single dose, OVCAR-8 (ovarian cancer), read-out: growth inhibition percent (GI%)
  inhibition at 10 µM: > 100%
OVCAR-8; five-dose
  TGI: 30.50 µM
CAKI-1; Homo sapiens, CAKI-1, five-dose
  GI50: 15.3 µM
CAKI-1; Homo sapiens, CAKI-1, five-dose, read-out: LC50 (the source's name)
  CC50: 54.6 µM
CAKI-1; Homo sapiens, 10 μM single dose, CAKI-1 (renal cancer), read-out: growth inhibition percent (GI%)
  inhibition at 10 µM: > 100%
CAKI-1; five-dose
  TGI: 29.00 µM
HS 578T; Homo sapiens, Hs-578T, five-dose
  GI50: 15.6 µM
HS 578T; Homo sapiens, Hs-578T, five-dose, read-out: LC50 (the source's name)
  CC50: 77 µM
HS 578T; Homo sapiens, 10 μM single dose, HS 578T (breast cancer), read-out: growth inhibition percent (GI%)
  inhibition at 10 µM: > 100%
HS 578T; five-dose
  TGI: 34.60 µM
SK-MEL-5; Homo sapiens, SK-MEL-5, five-dose
  GI50: 16.8 µM
SK-MEL-5; Homo sapiens, SK-MEL-5, five-dose, read-out: LC50 (the source's name)
  CC50: 55.4 µM
SK-MEL-5; Homo sapiens, 10 μM single dose, SK-MEL-5 (melanoma), read-out: growth inhibition percent (GI%)
  inhibition at 10 µM: > 100%
SK-MEL-5; five-dose
  TGI: 30.50 µM
A549/ATCC; Homo sapiens, A549, five-dose
  GI50: 11.5 µM
  LC50 (concentration killing 50% of cells): 54.2 µM
A549/ATCC; Homo sapiens, 10 μM single dose, A549/ATCC (non-small cell lung cancer), read-out: growth inhibition percent (GI%)
  inhibition at 10 µM: > 100%
A549/ATCC; five-dose
  TGI: 25.00 µM
NCI-H322M; [4]
  GI50: 14 µM
  LC50 (50% lethal concentration): 52.8 µM
NCI-H322M; Homo sapiens, 10 μM single dose, NCI-H322M (non-small cell lung cancer), read-out: growth inhibition percent (GI%)
  inhibition at 10 µM: 64%
NCI-H322M; five-dose
  TGI: 27.20 µM
OVCAR-5; 10 μM one-dose
  GI%: 99.16%
OVCAR-5; Homo sapiens, OVCAR-5, five-dose
  GI50: 14.5 µM
OVCAR-5; Homo sapiens, OVCAR-5, five-dose, read-out: LC50 (the source's name)
  CC50: 53.9 µM
OVCAR-5; Homo sapiens, 10 μM single dose, OVCAR-5 (ovarian cancer), read-out: growth inhibition percent (GI%)
  inhibition at 10 µM: 99.2%
OVCAR-5; five-dose
  TGI: 28.00 µM
UACC-257; Homo sapiens, UACC-257, five-dose
  GI50: 14.8 µM
UACC-257; Homo sapiens, UACC-257, five-dose, read-out: LC50 (the source's name)
  CC50: 55.8 µM
UACC-257; Homo sapiens, 10 μM single dose, UACC-257 (melanoma), read-out: growth inhibition percent (GI%)
  inhibition at 10 µM: > 100%
UACC-257; five-dose
  TGI: 28.70 µM
NCI-H226; Homo sapiens, NCI-H226, five-dose
  GI50: 15.9 µM
NCI-H226; Homo sapiens, NCI-H226, five-dose, read-out: LC50 (the source's name)
  CC50: 80.3 µM
NCI-H226; Homo sapiens, 10 μM single dose, NCI-H226 (non-small cell lung cancer), read-out: growth inhibition percent (GI%)
  inhibition at 10 µM: 23.1%
NCI-H226; five-dose
  TGI: 35.70 µM
MCF7; Homo sapiens, MCF7, five-dose
  GI50: 6.43 µM
MCF7; Homo sapiens, MCF7, five-dose, read-out: LC50 (the source's name)
  CC50: 50.1 µM
MCF7; Homo sapiens, 10 μM single dose, MCF7 (breast cancer), read-out: growth inhibition percent (GI%)
  inhibition at 10 µM: > 100%
MCF7; five-dose
  TGI: 20.20 µM
SF-539; [5]
  GI50: 15.6 µM
  LC50: 54.1 µM
SF-539; Homo sapiens, 10 μM single dose, SF-539 (CNS cancer), read-out: growth inhibition percent (GI%)
  inhibition at 10 µM: > 100%
SF-539; five-dose
  TGI: 29.00 µM
SF-295; Homo sapiens, SF-295, five-dose
  GI50: 16.6 µM
SF-295; Homo sapiens, SF-295, five-dose, read-out: LC50 (the source's name)
  CC50: 57.5 µM
SF-295; Homo sapiens, 10 μM single dose, SF-295 (CNS cancer), read-out: growth inhibition percent (GI%)
  inhibition at 10 µM: > 100%
SF-295; five-dose
  TGI: 30.90 µM
SK-OV-3; Homo sapiens, SK-OV-3, five-dose
  GI50: 16 µM
SK-OV-3; Homo sapiens, SK-OV-3, five-dose, read-out: LC50 (the source's name)
  CC50: 55.4 µM
SK-OV-3; Homo sapiens, 10 μM single dose, SK-OV-3 (ovarian cancer), read-out: growth inhibition percent (GI%)
  inhibition at 10 µM: 43.3%
SK-OV-3; five-dose
  TGI: 29.80 µM
HCT-15; Homo sapiens, HCT-15, five-dose
  GI50: 11.7 µM
HCT-15; Homo sapiens, HCT-15, five-dose, read-out: LC50 (the source's name)
  CC50: 51.8 µM
HCT-15; Homo sapiens, 10 μM single dose, HCT-15 (colon cancer), read-out: growth inhibition percent (GI%)
  inhibition at 10 µM: > 100%
HCT-15; five-dose
  TGI: 24.60 µM
KM12; Homo sapiens, KM12, five-dose
  GI50: 18 µM
KM12; Homo sapiens, KM12, five-dose, read-out: LC50 (the source's name)
  CC50: 63 µM
KM12; Homo sapiens, 10 μM single dose, KM12 (colon cancer), read-out: growth inhibition percent (GI%)
  inhibition at 10 µM: > 100%
KM12; five-dose
  TGI: 33.60 µM
SR; Homo sapiens, SR, five-dose
  GI50: 2.18 µM
SR; Homo sapiens, SR, five-dose, read-out: LC50 (the source's name)
  CC50: 17.5 µM
SR; Homo sapiens, 10 μM single dose, SR (leukaemia), read-out: growth inhibition percent (GI%)
  inhibition at 10 µM: > 100%
SR; five-dose
  TGI: 5.07 µM
UACC-62; Homo sapiens, UACC-62, five-dose
  GI50: 15.9 µM
UACC-62; Homo sapiens, UACC-62, five-dose, read-out: LC50 (the source's name)
  CC50: 56.2 µM
UACC-62; Homo sapiens, 10 μM single dose, UACC-62 (melanoma), read-out: growth inhibition percent (GI%)
  inhibition at 10 µM: > 100%
UACC-62; five-dose
  TGI: 29.90 µM
